Broadly, the IC50 is the midpoint of a concentration-inhibition curve.

For experiment [1], the target named is T1, Serine/threonine-protein kinase Sgk3 (Homo sapiens) (UniProt Q96BR1).
T1 sequence (whole entry): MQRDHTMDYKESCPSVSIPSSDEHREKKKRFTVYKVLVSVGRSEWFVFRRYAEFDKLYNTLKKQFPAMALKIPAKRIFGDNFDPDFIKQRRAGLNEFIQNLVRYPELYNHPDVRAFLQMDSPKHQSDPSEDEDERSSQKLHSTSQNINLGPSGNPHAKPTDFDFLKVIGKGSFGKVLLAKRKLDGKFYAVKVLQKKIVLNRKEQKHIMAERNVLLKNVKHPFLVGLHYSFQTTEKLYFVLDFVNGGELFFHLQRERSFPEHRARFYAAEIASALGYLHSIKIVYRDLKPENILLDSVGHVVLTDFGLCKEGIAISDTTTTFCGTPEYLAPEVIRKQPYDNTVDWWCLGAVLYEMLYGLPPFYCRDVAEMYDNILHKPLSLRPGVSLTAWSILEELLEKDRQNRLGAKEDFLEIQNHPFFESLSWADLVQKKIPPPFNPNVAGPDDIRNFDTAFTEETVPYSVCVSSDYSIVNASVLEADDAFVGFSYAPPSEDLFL
The experiment in a line: Selectivity interaction (KinomeScan (DiscoverX)) EUB0001619a SGK3. The following applies: at 1 µM.

Experiment [2] concerns the target Homeodomain-interacting protein kinase 1 (Homo sapiens, UniProt Q86Z02). The experiment in a line: Selectivity interaction (KinomeScan (DiscoverX)) EUB0001619a HIPK1. The settings on record: at 1 µM.
Experiment [3] deals with Microtubule-associated serine/threonine-protein kinase 3 (Homo sapiens) (UniProt O60307). In words: Selectivity interaction (ActivX KiNativ screen (kinase selectivity in THP-1 cell lysates)) EUB0000639a MAST3. The class given is subcellular. The following applies: lysate.
Experiment [4] addresses Dual specificity mitogen-activated protein kinase kinase 1 (Homo sapiens, UniProt Q02750). In words: Selectivity interaction (ActivX KiNativ screen (kinase selectivity in THP-1 cell lysates)) EUB0000639a MAP2K1. Type of experiment: subcellular. The following applies: lysate.
Experiment [5] has as its target T2, STE20-related kinase adapter protein alpha (Homo sapiens) (UniProt Q7RTN6).
T2 sequence (whole entry): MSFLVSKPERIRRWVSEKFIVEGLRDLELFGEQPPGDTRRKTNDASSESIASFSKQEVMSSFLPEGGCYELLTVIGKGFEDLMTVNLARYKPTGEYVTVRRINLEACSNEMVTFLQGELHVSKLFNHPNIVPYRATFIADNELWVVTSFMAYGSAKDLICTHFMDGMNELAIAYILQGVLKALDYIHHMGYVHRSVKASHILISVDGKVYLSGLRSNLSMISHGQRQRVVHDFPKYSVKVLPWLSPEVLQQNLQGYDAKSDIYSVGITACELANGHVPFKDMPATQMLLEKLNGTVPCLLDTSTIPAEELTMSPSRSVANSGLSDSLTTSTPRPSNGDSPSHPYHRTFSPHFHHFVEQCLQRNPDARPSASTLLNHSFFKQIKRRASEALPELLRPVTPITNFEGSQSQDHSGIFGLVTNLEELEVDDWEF
The experiment in a line: Selectivity interaction (ActivX KiNativ screen (kinase selectivity in THP-1 cell lysates)) EUB0000639a STRADA. The class given is subcellular. The settings on record: lysate, at 0.2 µM.

The target of experiment [6] is Serine/threonine-protein kinase N1 (Homo sapiens, UniProt Q16512). The experiment in a line: Selectivity interaction (ActivX KiNativ screen (kinase selectivity in THP-1 cell lysates)) EUB0000639a PKN1. The class given is subcellular. The following applies: lysate, at 5 µM.
Experiment [7] addresses Histone-lysine N-methyltransferase PRDM9 (Homo sapiens) (UniProt Q9NQV7). The following applies: at 1 µM.
Experiment [8] has as its target Calcium/calmodulin-dependent protein kinase type 1G (Homo sapiens) (UniProt Q96NX5). In words: Selectivity interaction (KinomeScan (DiscoverX)) EUB0001049a CAMK1G. The settings on record: at 1 µM.
The target in experiment [9] is 5-hydroxytryptamine receptor 2A (Homo sapiens, UniProt P28223). In words: Selectivity interaction (Panel of kinases, GPCRs, ion channels and transporters (enzymatic assay)) EUB0000223bCl HTR2A.
For experiment [10], the target named is Proto-oncogene tyrosine-protein kinase ROS (Homo sapiens) (UniProt P08922). The experiment in a line: Selectivity interaction (Upstate Kinase Profiler service (Millipore)) EUB0000056c ROS1. The settings on record: at 1 µM.
Experiment [11] has as its target Alpha-2A adrenergic receptor (Homo sapiens, UniProt P08913). The experiment in a line: Selectivity interaction (Alpha2A calcium flux assay ) EUB0000877a ADRA2A. Background: A change in cytosolic calcium serves as a functional read-out for many receptors and channels.
Experiment [12] has as its target Mitogen-activated protein kinase 11 (Homo sapiens) (UniProt Q15759). The experiment in a line: Selectivity interaction (KinomeScan (DiscoverX)) EUB0000092b MAPK11. The settings on record: at 10 µM.
The target in experiment [13] is T3, Tyrosine-protein kinase Tec (Homo sapiens) (UniProt P42680).
T3 sequence (whole entry): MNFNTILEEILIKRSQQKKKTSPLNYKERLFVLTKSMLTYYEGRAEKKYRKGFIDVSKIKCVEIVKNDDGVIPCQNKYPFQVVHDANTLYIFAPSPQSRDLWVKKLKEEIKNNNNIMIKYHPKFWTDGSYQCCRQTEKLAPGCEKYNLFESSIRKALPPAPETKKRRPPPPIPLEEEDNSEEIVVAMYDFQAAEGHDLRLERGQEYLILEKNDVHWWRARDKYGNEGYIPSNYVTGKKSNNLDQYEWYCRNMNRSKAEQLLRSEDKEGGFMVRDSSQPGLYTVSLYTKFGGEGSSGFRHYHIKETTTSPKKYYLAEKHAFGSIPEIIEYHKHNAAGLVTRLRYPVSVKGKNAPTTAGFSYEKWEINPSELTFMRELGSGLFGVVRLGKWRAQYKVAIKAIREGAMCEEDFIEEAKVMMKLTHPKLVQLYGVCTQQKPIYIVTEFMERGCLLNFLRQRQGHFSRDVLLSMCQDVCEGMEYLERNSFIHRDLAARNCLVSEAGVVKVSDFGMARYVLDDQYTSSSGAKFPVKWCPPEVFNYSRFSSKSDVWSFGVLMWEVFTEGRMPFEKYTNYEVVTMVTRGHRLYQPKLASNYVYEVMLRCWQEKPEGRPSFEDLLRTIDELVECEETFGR
The experiment in a line: Selectivity interaction (KinomeScan (DiscoverX)) EUB0000229b TEC. The settings on record: at 10 µM.

Dual specificity mitogen-activated protein kinase kinase 1, sequence (Q02750 whole entry): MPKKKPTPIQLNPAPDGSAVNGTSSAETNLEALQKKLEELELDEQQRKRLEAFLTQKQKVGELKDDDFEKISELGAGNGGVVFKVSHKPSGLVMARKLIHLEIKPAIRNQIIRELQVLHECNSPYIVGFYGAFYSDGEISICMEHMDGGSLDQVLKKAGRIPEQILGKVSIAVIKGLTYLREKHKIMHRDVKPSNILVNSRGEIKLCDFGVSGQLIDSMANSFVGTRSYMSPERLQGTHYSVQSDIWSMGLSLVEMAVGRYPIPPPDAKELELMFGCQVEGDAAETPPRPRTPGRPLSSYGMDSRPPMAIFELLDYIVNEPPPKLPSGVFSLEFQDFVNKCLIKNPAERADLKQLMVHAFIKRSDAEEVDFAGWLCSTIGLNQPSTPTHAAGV
Microtubule-associated serine/threonine-protein kinase 3 (Homo sapiens), sequence (O60307 whole entry): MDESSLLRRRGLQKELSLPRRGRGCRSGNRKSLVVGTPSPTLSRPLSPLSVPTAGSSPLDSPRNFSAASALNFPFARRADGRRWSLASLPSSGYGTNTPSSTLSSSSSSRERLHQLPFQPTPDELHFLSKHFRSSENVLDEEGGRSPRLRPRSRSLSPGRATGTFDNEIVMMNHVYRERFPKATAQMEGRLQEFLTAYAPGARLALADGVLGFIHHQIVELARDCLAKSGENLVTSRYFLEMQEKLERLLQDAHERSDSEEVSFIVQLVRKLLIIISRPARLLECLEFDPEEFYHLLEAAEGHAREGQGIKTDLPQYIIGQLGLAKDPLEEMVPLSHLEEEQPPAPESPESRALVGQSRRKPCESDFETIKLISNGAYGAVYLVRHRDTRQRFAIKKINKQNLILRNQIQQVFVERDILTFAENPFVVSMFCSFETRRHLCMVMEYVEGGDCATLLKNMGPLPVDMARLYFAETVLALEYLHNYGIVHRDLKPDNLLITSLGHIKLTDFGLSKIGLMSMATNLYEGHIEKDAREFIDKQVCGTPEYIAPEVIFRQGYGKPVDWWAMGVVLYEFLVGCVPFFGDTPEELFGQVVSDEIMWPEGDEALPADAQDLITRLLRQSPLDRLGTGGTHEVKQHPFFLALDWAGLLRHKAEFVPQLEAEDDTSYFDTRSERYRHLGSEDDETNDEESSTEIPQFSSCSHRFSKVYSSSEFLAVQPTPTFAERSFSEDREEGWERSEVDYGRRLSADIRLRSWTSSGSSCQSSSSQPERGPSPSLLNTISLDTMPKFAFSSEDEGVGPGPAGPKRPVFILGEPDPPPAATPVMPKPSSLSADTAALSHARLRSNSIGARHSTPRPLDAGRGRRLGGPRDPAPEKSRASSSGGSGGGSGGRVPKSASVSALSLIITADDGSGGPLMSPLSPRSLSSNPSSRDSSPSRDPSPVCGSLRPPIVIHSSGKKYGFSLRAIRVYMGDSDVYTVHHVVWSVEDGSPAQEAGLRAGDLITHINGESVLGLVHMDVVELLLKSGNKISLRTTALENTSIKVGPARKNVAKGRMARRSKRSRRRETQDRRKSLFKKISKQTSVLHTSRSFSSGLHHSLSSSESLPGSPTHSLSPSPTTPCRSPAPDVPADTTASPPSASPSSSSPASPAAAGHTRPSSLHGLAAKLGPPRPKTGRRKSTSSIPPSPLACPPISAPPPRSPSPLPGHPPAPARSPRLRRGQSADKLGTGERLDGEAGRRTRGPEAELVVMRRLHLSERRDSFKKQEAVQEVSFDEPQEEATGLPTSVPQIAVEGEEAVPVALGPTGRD
Mitogen-activated protein kinase 11 (Homo sapiens), sequence (Q15759 whole entry): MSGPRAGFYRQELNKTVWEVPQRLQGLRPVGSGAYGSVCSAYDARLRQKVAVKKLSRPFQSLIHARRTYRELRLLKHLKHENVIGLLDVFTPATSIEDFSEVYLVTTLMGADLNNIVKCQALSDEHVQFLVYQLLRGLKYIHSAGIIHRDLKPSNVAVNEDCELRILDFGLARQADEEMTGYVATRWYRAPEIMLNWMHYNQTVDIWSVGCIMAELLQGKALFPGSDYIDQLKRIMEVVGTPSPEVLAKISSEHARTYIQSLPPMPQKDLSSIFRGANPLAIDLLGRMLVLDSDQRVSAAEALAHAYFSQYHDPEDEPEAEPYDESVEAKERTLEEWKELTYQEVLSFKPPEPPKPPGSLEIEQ
Histone-lysine N-methyltransferase PRDM9 (Homo sapiens), sequence (Q9NQV7 whole entry): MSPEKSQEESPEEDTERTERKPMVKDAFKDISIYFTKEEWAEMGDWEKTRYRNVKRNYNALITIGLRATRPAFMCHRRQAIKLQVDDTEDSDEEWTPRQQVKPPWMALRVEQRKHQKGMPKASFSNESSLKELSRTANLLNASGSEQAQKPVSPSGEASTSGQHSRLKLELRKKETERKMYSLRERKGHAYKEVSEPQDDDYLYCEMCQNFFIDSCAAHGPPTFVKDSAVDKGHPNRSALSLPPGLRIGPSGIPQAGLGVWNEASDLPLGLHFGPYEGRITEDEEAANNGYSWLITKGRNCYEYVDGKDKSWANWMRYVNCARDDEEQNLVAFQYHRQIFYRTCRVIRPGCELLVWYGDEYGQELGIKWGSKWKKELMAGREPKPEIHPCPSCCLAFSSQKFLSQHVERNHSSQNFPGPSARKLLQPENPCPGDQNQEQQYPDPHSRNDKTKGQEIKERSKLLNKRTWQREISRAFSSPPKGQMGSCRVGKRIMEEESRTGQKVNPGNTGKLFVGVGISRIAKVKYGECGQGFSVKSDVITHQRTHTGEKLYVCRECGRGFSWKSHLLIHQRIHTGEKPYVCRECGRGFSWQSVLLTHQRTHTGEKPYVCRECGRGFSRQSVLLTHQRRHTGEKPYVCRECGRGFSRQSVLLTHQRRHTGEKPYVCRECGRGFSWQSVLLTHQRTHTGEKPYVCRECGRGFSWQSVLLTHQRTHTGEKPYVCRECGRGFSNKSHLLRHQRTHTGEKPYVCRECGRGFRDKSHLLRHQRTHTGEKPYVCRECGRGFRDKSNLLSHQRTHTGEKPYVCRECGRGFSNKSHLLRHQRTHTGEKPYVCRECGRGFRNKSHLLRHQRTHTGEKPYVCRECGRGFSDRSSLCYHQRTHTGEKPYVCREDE
5-hydroxytryptamine receptor 2A, sequence (P28223 whole entry): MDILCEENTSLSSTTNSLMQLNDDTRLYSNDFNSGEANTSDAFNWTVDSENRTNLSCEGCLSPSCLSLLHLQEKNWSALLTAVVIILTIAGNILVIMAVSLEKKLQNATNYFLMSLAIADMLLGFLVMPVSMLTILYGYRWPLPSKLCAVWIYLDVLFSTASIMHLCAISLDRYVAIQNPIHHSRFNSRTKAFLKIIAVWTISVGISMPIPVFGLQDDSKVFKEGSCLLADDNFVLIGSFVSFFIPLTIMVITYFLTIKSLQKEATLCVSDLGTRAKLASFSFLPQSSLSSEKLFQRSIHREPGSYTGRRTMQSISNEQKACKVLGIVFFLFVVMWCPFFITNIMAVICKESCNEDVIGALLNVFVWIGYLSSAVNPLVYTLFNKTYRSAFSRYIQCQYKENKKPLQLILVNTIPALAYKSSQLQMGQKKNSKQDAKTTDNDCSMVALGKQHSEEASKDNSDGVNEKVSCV
Serine/threonine-protein kinase N1, sequence (Q16512 2-942 limits assumed): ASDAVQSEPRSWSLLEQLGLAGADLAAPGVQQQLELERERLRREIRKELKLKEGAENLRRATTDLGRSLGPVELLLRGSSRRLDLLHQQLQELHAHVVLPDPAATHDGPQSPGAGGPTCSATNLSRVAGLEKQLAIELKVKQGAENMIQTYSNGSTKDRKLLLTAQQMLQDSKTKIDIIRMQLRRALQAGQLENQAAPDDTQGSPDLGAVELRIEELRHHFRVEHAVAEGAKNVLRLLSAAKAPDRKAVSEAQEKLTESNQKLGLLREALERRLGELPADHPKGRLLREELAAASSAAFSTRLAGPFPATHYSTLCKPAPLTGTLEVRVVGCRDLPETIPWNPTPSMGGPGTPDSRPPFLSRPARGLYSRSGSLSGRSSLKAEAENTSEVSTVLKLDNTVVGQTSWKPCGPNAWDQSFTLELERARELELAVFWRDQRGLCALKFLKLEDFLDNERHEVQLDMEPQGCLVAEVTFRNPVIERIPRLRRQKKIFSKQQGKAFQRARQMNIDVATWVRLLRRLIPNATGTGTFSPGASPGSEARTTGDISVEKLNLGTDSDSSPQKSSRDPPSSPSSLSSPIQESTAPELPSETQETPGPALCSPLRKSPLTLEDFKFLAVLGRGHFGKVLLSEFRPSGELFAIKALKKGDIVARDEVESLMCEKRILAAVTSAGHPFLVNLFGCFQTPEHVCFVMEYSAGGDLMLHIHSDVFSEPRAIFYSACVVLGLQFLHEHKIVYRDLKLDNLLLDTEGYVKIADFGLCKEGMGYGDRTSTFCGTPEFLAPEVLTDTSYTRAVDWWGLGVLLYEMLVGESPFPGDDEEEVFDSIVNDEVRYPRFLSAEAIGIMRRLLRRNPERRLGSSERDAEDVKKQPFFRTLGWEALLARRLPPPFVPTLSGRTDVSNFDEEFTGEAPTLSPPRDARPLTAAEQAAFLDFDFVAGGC
Calcium/calmodulin-dependent protein kinase type 1G (Homo sapiens), sequence (Q96NX5 whole entry): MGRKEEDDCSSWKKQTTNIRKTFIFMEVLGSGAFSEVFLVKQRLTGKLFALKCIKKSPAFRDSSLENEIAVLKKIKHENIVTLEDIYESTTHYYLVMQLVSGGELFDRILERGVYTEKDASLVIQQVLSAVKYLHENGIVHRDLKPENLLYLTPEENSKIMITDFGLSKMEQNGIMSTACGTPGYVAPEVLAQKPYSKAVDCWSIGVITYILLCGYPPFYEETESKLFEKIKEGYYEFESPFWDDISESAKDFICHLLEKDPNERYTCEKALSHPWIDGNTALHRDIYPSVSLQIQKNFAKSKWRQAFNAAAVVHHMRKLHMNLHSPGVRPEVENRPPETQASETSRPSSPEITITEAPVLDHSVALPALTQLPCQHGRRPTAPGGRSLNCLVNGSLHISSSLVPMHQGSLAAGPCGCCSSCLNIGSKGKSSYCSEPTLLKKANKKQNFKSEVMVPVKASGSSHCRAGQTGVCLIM

As to `N#Cc1cccc(-c2c[nH]c3ncnc(N4CCOCC4)c23)c1`, the figures for the % of control in [1] and in experiment [2] were 100% and 77%, respectively.

As to `CC[C@@H]1[C@H](F)C(=O)N[C@@H]1COc1nccc2cc(C(N)=O)c(OC)cc12` [ZIMLOVISERTIB], the % of inhibition in experiment [3] (at 0.01 µM) is 11.4%; in experiment [3] (at 0.04 µM), 9.3%; in experiment [3] (at 0.2 µM) it was 2.6%; in [3] (at 1 µM), 4.8%; in experiment [3] (at 5 µM), 32.1%; in experiment [4] (at 0.01 µM) it was -25.6%. The % of inhibition in [4] (at 0.04 µM) was -4.8%; in [4] (at 0.2 µM) it was -3.6%; in experiment [4] (at 1 µM) it was 3.1%; in experiment [4] (at 5 µM) it was 18.5%; in [5] it was -15.4%; in [6], 0.1%.

`CNCCN1CCC(c2cc(CN(C)C(=O)c3cccc(Oc4ccccc4)c3)ccn2)CC1`: in experiment [7], the % activity is > 90%.

Turning to `COc1cc(Nc2nc(C)cc(-c3cnn4nc(OC)ccc34)n2)cc(C(F)(F)F)c1`, the % of control in experiment [8] is 95%.

For the compound `COc1cc(C(=O)N2CC[C@@H](O)[C@@H](N)C2)cc2nc(-c3cc4ccccc4n3CC3CC3)n(C)c12`, the pXC50 in [9] worked out at 4.9 M.

Take `Cc1ccc(-c2ccc3c(ccc4sc5c(c43)NC[C@@H](C)NC5=O)n2)cn1`: the % of inhibition in [10] was -15%.

For `CCC(=O)N1CC[C@H](Nc2ncnc3c2CN(c2cnc(OC)c(C(F)(F)F)c2)CC3)C1` [LENIOLISIB], the IC50 in [11] was > 30 µM.

In turn, `CCC(=O)N1CCN(c2ccc(-n3c(=O)ccc4cnc5ccc(-c6cnc7ccccc7c6)cc5c43)cc2C(F)(F)F)CC1` yielded a % of control in experiment [12] of 53%.

For the compound `COc1cc(N(C)c2ccnc3ccc(C(F)(F)F)cc23)cc(OC)c1OC`, the % binding in experiment [13] was 98%.
